Among the data in PubChem BioAssay AID328 (DTP/NCI, 2004) are T/C values, retold here.

The assay has as its system BDF1 mice, P388 leukemia ip, median survival T/C. Briefly: NCI In Vivo Anticancer Drug Screen. Data for tumor model P388 Leukemia (intraperitoneal) in B6D2F1 (BDF1) mice. As to conditions: endpoint: median survival time, higher = longer survival. An outline of the steps:
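Read-out is survival of treated animals expressed relative to the vehicle group, as a T/C ratio.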

Where [1] appears, read: dose: 12.5 mg/kg/injection, schedule: Q01DX009 (ip), vehicle: saline with Tween-80.
Where [2] appears, read: dose: 25.0 mg/kg/injection, schedule: Q01DX009 (ip), vehicle: saline with Tween-80.
The mark [3] stands for this setting: dose: 50.0 mg/kg/injection, schedule: Q01DX009 (ip), vehicle: saline with Tween-80.
Where [4] appears, read: dose: 100.0 mg/kg/injection, schedule: Q01DX009 (ip), vehicle: saline with Tween-80.
[5] abbreviates: dose: 12.5 mg/kg/injection, schedule: Q01DX009 (ip), vehicle: saline.
[6] abbreviates: dose: 25.0 mg/kg/injection, schedule: Q01DX009 (ip), vehicle: saline.
Setting [7] is: dose: 50.0 mg/kg/injection, schedule: Q01DX009 (ip), vehicle: saline.
The mark [8] stands for this setting: dose: 100.0 mg/kg/injection, schedule: Q01DX009 (ip), vehicle: saline.
Where [9] appears, read: dose: 100.0 mg/kg/injection, schedule: Q04DX003 (ip), vehicle: saline with Tween-80.
Where [10] appears, read: dose: 200.0 mg/kg/injection, schedule: Q01DX009 (ip), vehicle: saline with Tween-80.
Where [11] appears, read: dose: 200.0 mg/kg/injection, schedule: Q04DX003 (ip), vehicle: saline with Tween-80.

SMILES strings stand for the structures. Inconclusive results and toxic doses are left out.

As for `ClC(c1ccccc1)C1(Br)C=c2ccccc2=C1` (configuration not stated), the T/C was 95 % of control (dose: 50.0 mg/kg/injection, schedule: Q01DX009 (ip), vehicle: Klucel (hydroxypropylcellulose) (HPC)); 95 % of control (dose: 50.0 mg/kg/injection, schedule: Q04DX003 (ip), vehicle: Klucel (hydroxypropylcellulose) (HPC)); 90 % of control (dose: 100.0 mg/kg/injection, schedule: Q01DX009 (ip), vehicle: Klucel (hydroxypropylcellulose) (HPC)); 91 % of control (dose: 100.0 mg/kg/injection, schedule: Q04DX003 (ip), vehicle: Klucel (hydroxypropylcellulose) (HPC)); 100 % of control (dose: 200.0 mg/kg/injection, schedule: Q04DX003 (ip), vehicle: Klucel (hydroxypropylcellulose) (HPC)).

`C[P+]1(C)CCc2c1ccc1ccccc21`: the T/C is 104 % of control under setting [1], 100 % of control under setting [2] and 104 % of control under setting [3].

For the molecule `O=C1c2ccccc2C(=O)N1Cc1ccc([N+](=O)[O-])cc1`, the T/C was 97 % of control under setting [1], 96 % of control under setting [2], 97 % of control under setting [3] and 92 % of control under setting [4].

With `NNc1ncnc2c1ncn2C1OC(CO)C(O)C1O` (configuration not stated), the T/C (dose: 7.5 mg/kg/injection, schedule: Q04DX003 (ip), vehicle: saline) is 90 % of control; the T/C under setting [5] is 109 % of control; the T/C (dose: 15.0 mg/kg/injection, schedule: Q01DX010 (ip), vehicle: saline) was 113 % of control; the T/C (dose: 15.0 mg/kg/injection, schedule: Q04DX003 (ip), vehicle: saline) is 105 % of control; the T/C under setting [6] is 109 % of control; the T/C (dose: 30.0 mg/kg/injection, schedule: Q04DX003 (ip), vehicle: saline) was 105 % of control. Moreover, the T/C by setting is: under setting [7], 113 % of control; (dose: 60.0 mg/kg/injection, schedule: Q01DX010 (ip), vehicle: saline) 154 % of control; (dose: 60.0 mg/kg/injection, schedule: Q04DX003 (ip), vehicle: saline) 120 % of control; (dose: 120.0 mg/kg/injection, schedule: Q04DX003 (ip), vehicle: saline) 105 % of control.

Turning to `OCCN1CCN(CC/C=C2/c3ccccc3Sc3ccc(Cl)cc32)CC1`, the T/C was 108 % of control (dose: 5.56 mg/kg/injection, schedule: Q01DX009 (ip), vehicle: saline); 108 % of control (dose: 8.33 mg/kg/injection, schedule: Q01DX009 (ip), vehicle: saline); 120 % of control under setting [5]; 113 % of control under setting [6]; 150 % of control (dose: 33.0 mg/kg/injection, schedule: Q04DX003 (ip), vehicle: saline).

As for `ClCCCCCCCCc1ccccc1`, the T/C runs as follows: under setting [5], 102 % of control; under setting [6], 100 % of control; (dose: 44.0 mg/kg/injection, schedule: Q04DX003 (ip), vehicle: saline with Tween-80) 122 % of control; under setting [7], 107 % of control; (dose: 66.0 mg/kg/injection, schedule: Q04DX003 (ip), vehicle: saline with Tween-80) 100 % of control; under setting [8], 100 % of control. For the same molecule, the T/C is 118 % of control under setting [9] and 108 % of control (dose: 200.0 mg/kg/injection, schedule: Q01DX009 (ip), vehicle: saline).

`O=c1oc2ccccc2cc1-c1csc(/C=N/N2CCOCC2)n1`: the T/C is, setting by setting: under setting [3], 113 % of control; under setting [4], 104 % of control.

In the case of `CCOC(=O)c1c(C)cc(C)nc1[S][Sn]([Br])([Br])[S]c1nc(C)cc(C)c1C(=O)OCC`, the T/C is, setting by setting: under setting [3], 97 % of control; under setting [4], 103 % of control; under setting [10], 106 % of control.

As to `C=CCCC(=O)OC(C)(C)C`, the T/C (dose: 12.5 mg/kg/injection, schedule: Q01DX009 (ip), vehicle: water) is 103 % of control; the T/C under setting [6] was 109 % of control; the T/C (dose: 25.0 mg/kg/injection, schedule: Q01DX009 (ip), vehicle: water) is 100 % of control; the T/C (dose: 25.0 mg/kg/injection, schedule: Q04DX003 (ip), vehicle: water) is 106 % of control; the T/C (dose: 50.0 mg/kg/injection, schedule: Q01DX009 (ip), vehicle: water) is 100 % of control; the T/C (dose: 50.0 mg/kg/injection, schedule: Q04DX003 (ip), vehicle: water) is 116 % of control. For the same molecule, the T/C is, setting by setting: under setting [8], 109 % of control; (dose: 100.0 mg/kg/injection, schedule: Q04DX003 (ip), vehicle: water) 114 % of control; (dose: 200.0 mg/kg/injection, schedule: Q04DX003 (ip), vehicle: water) 98 % of control; (dose: 400.0 mg/kg/injection, schedule: Q01DX009 (ip), vehicle: saline) 100 % of control; (dose: 400.0 mg/kg/injection, schedule: Q04DX003 (ip), vehicle: water) 114 % of control.

Consider `CCOC(=O)NCNC(=O)OCC`, for which the T/C reads like this: (dose: 100.0 mg/kg/injection, schedule: Q04DX003 (ip), vehicle: saline sonified) 100 % of control; (dose: 200.0 mg/kg/injection, schedule: Q04DX003 (ip), vehicle: saline sonified) 108 % of control; (dose: 400.0 mg/kg/injection, schedule: Q04DX003 (ip), vehicle: saline sonified) 108 % of control.

Consider `COc1c2occc2c(CC(O)C(C)(C)O)c2ccc(=O)oc12` (configuration not stated), for which the T/C (dose: 43.8 mg/kg/injection, schedule: Q01DX009 (ip), vehicle: Klucel (hydroxypropylcellulose) (HPC)) is 103 % of control; the T/C (dose: 87.5 mg/kg/injection, schedule: Q01DX009 (ip), vehicle: Klucel (hydroxypropylcellulose) (HPC)) was 92 % of control; the T/C (dose: 175.0 mg/kg/injection, schedule: Q01DX009 (ip), vehicle: Klucel (hydroxypropylcellulose) (HPC)) was 90 % of control.

As for `OC1CC2CCC(C1)N2CCCN1c2ccccc2Sc2ccc(Cl)cc21` (configuration not stated), the T/C is 104 % of control under setting [6]; 91 % of control under setting [7]; 90 % of control (dose: 100.0 mg/kg/injection, schedule: Q04DX003 (ip), vehicle: saline).

With `Nc1cccnc1`, the T/C (dose: 5.0 mg/kg/injection, schedule: Q01DX009 (ip), vehicle: saline) was 100 % of control and the T/C (dose: 10.0 mg/kg/injection, schedule: Q01DX009 (ip), vehicle: saline) is 110 % of control.

Regarding `Cc1ccc(N2CCN(C3=CCC(C(C)C)CC3)CC2)cc1Cl` (configuration not stated), the T/C (dose: 100.0 mg/kg/injection, schedule: Q01DX001 (ip), vehicle: saline with Tween-80) was 105 % of control and the T/C (dose: 200.0 mg/kg/injection, schedule: Q01DX001 (ip), vehicle: saline with Tween-80) was 105 % of control.

As to `O=C(CSc1cc(-c2ccc(Cl)cc2)s[s+]1)c1ccccc1`, the T/C is, setting by setting: under setting [3], 101 % of control; under setting [4], 109 % of control; under setting [9], 114 % of control; under setting [10], 113 % of control; under setting [11], 114 % of control; (dose: 400.0 mg/kg/injection, schedule: Q01DX009 (ip), vehicle: saline with Tween-80) 113 % of control. Further, for the setting “dose: 400.0 mg/kg/injection, schedule: Q04DX003 (ip), vehicle: saline with Tween-80”, the T/C was 93 % of control.

As for `c1cnc2c3c(ccc2c1)CN(C1CCCCC1)CO3`, the T/C (dose: 50.0 mg/kg/injection, schedule: Q04DX003 (ip), vehicle: saline with Tween-80) was 104 % of control; the T/C under setting [9] was 104 % of control; the T/C under setting [11] is 90 % of control.

With `COc1ccc(C(c2ccc(OC)cc2)C(Cl)(Cl)Cl)cc1`, the T/C (dose: 100.0 mg/kg/injection, schedule: Q01DX001 (ip), vehicle: Klucel (hydroxypropylcellulose) (HPC)) was 104 % of control; the T/C (dose: 200.0 mg/kg/injection, schedule: Q01DX001 (ip), vehicle: Klucel (hydroxypropylcellulose) (HPC)) is 100 % of control; the T/C (dose: 400.0 mg/kg/injection, schedule: Q01DX001 (ip), vehicle: Klucel (hydroxypropylcellulose) (HPC)) was 100 % of control.
